Target: T1, Recombinant human KIF18A (1-467 His-tagged) protein (Homo sapiens, UniProt Q8NI77)
T1 construct: Recombinant human KIF18A (1-467 His-tagged) protein; His; made in house
Test: KIF18A Enzyme Assay (microtubule-stimulated ATPase activity, ADP-Glo)
Type: biochemical
Conditions: KIF18A protein 30 nM, ATP 75 μM (at Km), 30 μg/mL pig microtubules, ADP-Glo luminescence
Source text: For compounds in Table A, the following assay conditions were employed:
KIF18A Enzyme Assay: Microtubule-stimulated ATPase activity assay is used to measure KIF18A enzyme activity after treatment with compound. Compounds were 2-fold serially diluted in DMSO (Sigma Inc) over 22-point concentration range. Recombinant human KIF18A (1-467 His-tagged) protein was expressed using a baculovirus system and purified by affinity chromatography by Amgen Inc. Concentrations of KIF18A protein, microtubules (MT), and ATP in the reaction were optimized for standardized homogenous enzyme assay using ADP-Glom Kinase/ATPase Assay Kit (Promega Inc). The assay measures ADP formed from the ATPase reaction. […] Read luminescence using EnVision microplate reader with ultra-luminescence module (Perkin Elmer Inc). Concentration-response curve-fitting and IC50 determination was performed using Genedata Screener Software (Standard 15.0.1, Genedata Inc) with a four-parameter logistic regression fit model.

T1 sequence (Q8NI77 1-467): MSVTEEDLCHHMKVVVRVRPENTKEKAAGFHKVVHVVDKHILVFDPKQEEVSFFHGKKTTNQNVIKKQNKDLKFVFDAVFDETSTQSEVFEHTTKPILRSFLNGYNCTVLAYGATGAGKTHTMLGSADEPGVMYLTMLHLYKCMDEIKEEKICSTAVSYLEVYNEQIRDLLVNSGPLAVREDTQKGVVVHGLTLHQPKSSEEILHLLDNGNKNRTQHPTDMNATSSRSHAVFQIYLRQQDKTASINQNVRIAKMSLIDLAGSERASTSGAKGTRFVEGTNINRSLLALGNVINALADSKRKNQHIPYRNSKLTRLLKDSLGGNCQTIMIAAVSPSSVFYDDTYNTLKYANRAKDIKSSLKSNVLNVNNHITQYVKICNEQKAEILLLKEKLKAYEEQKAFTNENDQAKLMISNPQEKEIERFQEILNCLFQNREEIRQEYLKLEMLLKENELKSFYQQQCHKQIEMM
T1 sequence (P02550 whole entry partner): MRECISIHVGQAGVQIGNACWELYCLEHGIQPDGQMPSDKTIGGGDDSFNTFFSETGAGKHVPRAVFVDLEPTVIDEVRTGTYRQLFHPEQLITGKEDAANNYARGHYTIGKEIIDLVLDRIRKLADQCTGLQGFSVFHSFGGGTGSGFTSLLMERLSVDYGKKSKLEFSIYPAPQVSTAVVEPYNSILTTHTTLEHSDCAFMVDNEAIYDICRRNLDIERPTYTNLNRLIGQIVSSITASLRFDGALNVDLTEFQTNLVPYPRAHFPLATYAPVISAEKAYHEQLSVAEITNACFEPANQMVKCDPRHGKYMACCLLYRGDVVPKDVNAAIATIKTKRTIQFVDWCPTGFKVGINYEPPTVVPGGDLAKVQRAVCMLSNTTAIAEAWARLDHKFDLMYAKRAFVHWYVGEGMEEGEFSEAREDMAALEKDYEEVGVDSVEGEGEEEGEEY
T1 sequence (P02554 whole entry partner): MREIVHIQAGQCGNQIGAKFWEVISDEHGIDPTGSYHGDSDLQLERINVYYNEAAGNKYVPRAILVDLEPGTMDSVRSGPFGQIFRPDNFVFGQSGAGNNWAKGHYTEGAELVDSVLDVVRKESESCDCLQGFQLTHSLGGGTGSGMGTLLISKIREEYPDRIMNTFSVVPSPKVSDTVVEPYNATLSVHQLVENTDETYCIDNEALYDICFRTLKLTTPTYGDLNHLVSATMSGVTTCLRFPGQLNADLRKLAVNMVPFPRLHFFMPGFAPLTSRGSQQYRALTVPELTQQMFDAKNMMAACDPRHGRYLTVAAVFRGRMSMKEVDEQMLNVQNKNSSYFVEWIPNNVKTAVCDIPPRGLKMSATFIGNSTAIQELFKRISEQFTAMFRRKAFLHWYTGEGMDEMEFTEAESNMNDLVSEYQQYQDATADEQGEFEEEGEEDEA

SMILES	IC50 [nM]
CC(C)(C)NS(=O)(=O)c1cccc(NC(=O)c2ncc(NC(C)(C)CO)nc2N2CCC3(CCC3)CC2)c1 [Example 100-15, N-(3-(N-(tert-butyl)sulfamoyl)phenyl)-5-((1-hydroxy-2-methylpropan-2-yl)amino)-3-(7-azaspiro[3.5]nonan-7-yl)pyrazine-2-carboxamide]	77
CC(C)(C)NS(=O)(=O)c1cccc(NC(=O)c2ncc(NC(C)(C)CO)nc2N2CCC3(CCCC3)CC2)c1 [Example 100-17, N-(3-(N-(tert-butyl)sulfamoyl)phenyl)-5-((1-hydroxy-2-methylpropan-2-yl)amino)-3-(8-azaspiro[4.5]decan-8-yl)pyrazine-2-carboxamide]	129
CC(C)(CO)Nc1cnc(C(=O)Nc2cccc(S(=O)(=O)C3(C)CCC3)c2)c(N2CCC3(CC2)CC3)n1 [Example 101-3, 5-((1-hydroxy-2-methylpropan-2-yl)amino)-N-(3-((1-methylcyclobutyl)sulfonyl)phenyl)-3-(6-azaspiro[2.5]octan-6-yl)pyrazine-2-carboxamide]	204
CC(C)(C)NS(=O)(=O)c1cccc(NC(=O)c2ncc(NC(C)(C)CO)nc2-c2ccc(Cl)cc2)c1 [Example 104, N-(3-(N-(tert-butyl)sulfamoyl)phenyl)-3-(4-chlorophenyl)-5-((1-hydroxy-2-methylpropan-2-yl)amino)pyrazine-2-carboxamide]	135
CC(C)(C)NS(=O)(=O)c1cccc(NC(=O)c2ncc(NC(C)(C)CO)nc2N2CCC(C3CC3)CC2)c1 [Example 100-10, N-(3-(N-(tert-butyl)sulfamoyl)phenyl)-3-(4-cyclopropylpiperidin-1-yl)-5-((1-hydroxy-2-methylpropan-2-yl)amino)pyrazine-2-carboxamide]	221
CC(C)(CO)Nc1cnc(C(=O)Nc2cccc(S(=O)(=O)N3CCCCC3)c2)c(N2CCC3(CC2)CC3)n1 [Example 103-1, 5-((1-hydroxy-2-methylpropan-2-yl)amino)-N-(3-(piperidin-1-ylsulfonyl)phenyl)-3-(6-azaspiro[2.5]octan-6-yl)pyrazine-2-carboxamide]	135
CC(C)(C)NS(=O)(=O)c1cccc(NC(=O)c2ncc(NC3(CO)CC3)nc2N2CCC3(CC2)CC3)c1 [Example 103-3, N-(3-(N-(tert-butyl)sulfamoyl)phenyl)-5-((1-(hydroxymethyl)cyclopropyl)amino)-3-(6-azaspiro[2.5]octan-6-yl)pyrazine-2-carboxamide]	139
CC(C)(C)NS(=O)(=O)c1cccc(NC(=O)c2ncc(NC(C)(C)CO)nc2N2CCC3(CC2)CC3)c1F [Example 101-5, N-(3-(N-(tert-butyl)sulfamoyl)-2-fluorophenyl)-5-((1-hydroxy-2-methylpropan-2-yl)amino)-3-(6-azaspiro[2.5]octan-6-yl)pyrazine-2-carboxamide]	527
CCCC1CCN(c2nc(NC(C)(C)CO)cnc2C(=O)Nc2cccc(S(=O)(=O)NC(C)(C)C)c2)CC1 [Example 100-9, N-(3-(N-(tert-butyl)sulfamoyl)phenyl)-5-((1-hydroxy-2-methylpropan-2-yl)amino)-3-(4-propylpiperidin-1-yl)pyrazine-2-carboxamide]	118
Cc1cc(NC(=O)c2ncc(NC(C)(C)CO)nc2N2CCC3(CC2)CC3)cc(S(=O)(=O)NC(C)(C)C)c1 [Example 101, N-(3-(N-(tert-Butyl)sulfamoyl)-5-methylphenyl)-5-((1-hydroxy-2-methylpropan-2-yl)amino)-3-(6-azaspiro[2.5]octan-6-yl)pyrazine-2-carboxamide]	231
CCC1CCN(c2nc(NC(C)(C)CO)cnc2C(=O)Nc2cccc(S(=O)(=O)NC(C)(C)C)c2)CC1 [Example 100-4, N-(3-(N-(tert-butyl)sulfamoyl)phenyl)-3-(4-ethylpiperidin-1-yl)-5-((1-hydroxy-2-methylpropan-2-yl)amino)pyrazine-2-carboxamide]	133
CC(C)(C)NS(=O)(=O)c1cc(F)cc(NC(=O)c2ncc(NC(C)(C)CO)nc2N2CCC3(CC2)CC3)c1 [Example 101-4, N-(3-(N-(tert-butyl)sulfamoyl)-5-fluorophenyl)-5-((1-hydroxy-2-methylpropan-2-yl)amino)-3-(6-azaspiro[2.5]octan-6-yl)pyrazine-2-carboxamide]	172
CC(C)(CO)Nc1cccc(NC(=O)c2ncc(NC(C)(C)CO)nc2N2CCC3(CC2)CC3)c1 [Example 101-8, 5-((1-hydroxy-2-methylpropan-2-yl)amino)-N-(3-((1-hydroxy-2-methylpropan-2-yl)amino)phenyl)-3-(6-azaspiro[2.5]octan-6-yl)pyrazine-2-carboxamide]	240
COCC1CCN(c2nc(NC(C)(C)CO)cnc2C(=O)Nc2cccc(S(=O)(=O)NC(C)(C)C)c2)CC1 [Example 100-11, N-(3-(N-(tert-butyl)sulfamoyl)phenyl)-5-((1-hydroxy-2-methylpropan-2-yl)amino)-3-(4-(methoxymethyl)piperidin-1-yl)pyrazine-2-carboxamide]	1390

Reference: patent US12435058B2, “KIF18A inhibitors” (AMGEN INC., priority 2019, dated 2025)
